Data on one compound can be found in patent US6828334B2, “Fenofibrate-cyclodextrin inclusion complexes and their pharmaceutical composition” (USV Limited, priority 2002, dated 2004).

Each structure is given as a SMILES string.

This series in a line: in-vitro dissolution, rotating blade method at 75 rpm according to USP24. It counts as physicochemical.

Turning to `CC(C)OC(=O)C(C)(C)Oc1ccc(C(=O)c2ccc(Cl)cc2)cc1` [fenofibrate, 2-[4-(4-chlorobenzoyl)phenoxy]-2-methyl propionate], the “% release of fenofibrate” value reads like this: (water with 0.025 M sodium lauryl sulfate, 1200 ml, 5 min) 8-10%; (water with 0.025 M sodium lauryl sulfate, 1200 ml, 10 min) 16-22%; (water with 0.025 M sodium lauryl sulfate, 1200 ml, 20 min) 24-30%; (water with 2% by weight polysorbate-80, 1200 ml, 5 min) 4-8%; (water with 2% by weight polysorbate-80, 1200 ml, 10 min) 19-22%; (water with 2% by weight polysorbate-80, 1200 ml, 20 min) 30-32%. In addition, the “% release of fenofibrate” value (water with 2% by weight polysorbate-80, 1200 ml, 30 min) is reported as 36-38%.
